Measured values as given in patent publication US20240132473A1, “SULFOXIMIDE SUBSTITUTED INDAZOLE IRAK4 KINASE INHIBITOR, PREPARATION METHOD THEREOF AND USE THEREOF” (Shanghai Xunhe Pharmaceutical Technology Co. Ltd., priority 2021, published 2024).

Legend:
in vivo [1] = conditions: rat, po; for half-life: SD; for AUC(0-t) / Cmax / Tmax: 25 mg/kg
Method: SD rats were used as the test animals.
Standard curve and preparation and processing of quality control samples:
Stock solution was diluted with 50% acetonitrile-water to obtain standard working solutions of 0.04, 0.10, 0.20, 0.40, 1.00, 2.00, 4.00 μg/mL, and quality control working solutions of 0.10, 1.00, 3.00 μg/mL. […] 200 μL of acetonitrile (containing 5 ng/mL of the internal standard loratadine) was added. After the vortex oscillation for 3 minutes, the solutions were centrifuged at 15000 rpm at 4° C. for 15 minutes. 100 μL of the supernatant was taken for LC-MS/MS analysis. WinNonlin ® 8.0 was used to calculate the experimental results.

[2] = test system: TNF-α secretion in THP-1 cells; assay: Inhibition of LPS-stimulated TNF-α secretion in THP-1 cells (ELISA); format: cell-based; conditions: Homo sapiens, LPS 1 μg/mL, 4.5 hours
Method: TNF-α is a key cytokine involved in the inflammatory process of the listed autoimmune disease, such as rheumatoid arthritis, psoriatic arthritis, ankylosing spondylitis, psoriasis, Crohn's disease, ulcerative colitis, etc. In this test, TNF-α secretion was triggered by incubation with bacterial lipopolysaccharides (LPS). […] The 96-well plate was rotated at 2000 rpm for 5 minutes, and then 50 μL of supernatant was taken. The content of TNF-α in the supernatant was determined by human ELISA kit, and IC50 value of the compound was calculated by XL-Fit (table 4).

IRAK4 kinase = IRAK4 kinase (Homo sapiens (Human), UniProt Q9NWZ3); assay: IRAK4 kinase inhibitory activity assay (mobility shift assay, Km ATP); format: biochemical; conditions: MSA, ATP 37 μM (Km ATP)
IRAK4 kinase, sequence (Q9NWZ3 whole entry): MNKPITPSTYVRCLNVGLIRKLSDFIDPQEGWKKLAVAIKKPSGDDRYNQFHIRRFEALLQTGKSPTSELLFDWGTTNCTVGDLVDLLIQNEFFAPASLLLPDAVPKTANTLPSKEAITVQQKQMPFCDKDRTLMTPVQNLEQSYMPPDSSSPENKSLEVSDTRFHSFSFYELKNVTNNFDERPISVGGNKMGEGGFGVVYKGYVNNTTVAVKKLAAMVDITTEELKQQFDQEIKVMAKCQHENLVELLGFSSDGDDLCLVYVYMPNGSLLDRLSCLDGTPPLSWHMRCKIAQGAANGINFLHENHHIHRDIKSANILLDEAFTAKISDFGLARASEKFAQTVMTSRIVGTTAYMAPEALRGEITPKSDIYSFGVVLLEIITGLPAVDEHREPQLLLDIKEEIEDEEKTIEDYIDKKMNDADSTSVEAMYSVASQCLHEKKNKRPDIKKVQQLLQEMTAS
Method: The inhibitory activity (IC50) of the compound on IRAK4 kinase under Km ATP was detected by mobility shift assay (MSA). Ten drug concentration gradients were set (initial concentration 1 μM, 3-fold dilution, 2 duplicate wells per concentration). […] After incubation at 28° C. for a period of time, 10 μL of termination buffer was added to terminate the reaction. The conversion rate data was read with Caliper, and then the conversion rate was converted into inhibition rate data. According to the inhibition rate data of each concentration, the IC50 of half inhibitory concentration was calculated by Logit method (Table 3).

in vivo [3] = conditions: ICR, mouse, po
Method: On the day of administration, observations were made approximately 0.5, 1, 2, 4, and 6 hours after the first administration. During day 2 to day 6 of the observation period, observations were made twice a day, once in the morning and once in the afternoon.
Observations included but not limited to: general conditions, behavioral activities, gait and posture, eyes, mouth, nose, gastrointestinal tract, skin hair and urogenital tract.
Weight data were expressed as mean ±standard deviation. Levene's test and one-way analysis of variance were used for comparison between groups. If there was a difference, Dunnet t test was then used.
The maximum tolerated dose refers to the dose administered when the animal was dying.

hERG potassium channel = hERG potassium channel (Homo sapiens (Human), UniProt Q12809); assay: cell-based; conditions: for Inhibition rate (%) of hERG current: human
hERG potassium channel, sequence (Q12809 whole entry): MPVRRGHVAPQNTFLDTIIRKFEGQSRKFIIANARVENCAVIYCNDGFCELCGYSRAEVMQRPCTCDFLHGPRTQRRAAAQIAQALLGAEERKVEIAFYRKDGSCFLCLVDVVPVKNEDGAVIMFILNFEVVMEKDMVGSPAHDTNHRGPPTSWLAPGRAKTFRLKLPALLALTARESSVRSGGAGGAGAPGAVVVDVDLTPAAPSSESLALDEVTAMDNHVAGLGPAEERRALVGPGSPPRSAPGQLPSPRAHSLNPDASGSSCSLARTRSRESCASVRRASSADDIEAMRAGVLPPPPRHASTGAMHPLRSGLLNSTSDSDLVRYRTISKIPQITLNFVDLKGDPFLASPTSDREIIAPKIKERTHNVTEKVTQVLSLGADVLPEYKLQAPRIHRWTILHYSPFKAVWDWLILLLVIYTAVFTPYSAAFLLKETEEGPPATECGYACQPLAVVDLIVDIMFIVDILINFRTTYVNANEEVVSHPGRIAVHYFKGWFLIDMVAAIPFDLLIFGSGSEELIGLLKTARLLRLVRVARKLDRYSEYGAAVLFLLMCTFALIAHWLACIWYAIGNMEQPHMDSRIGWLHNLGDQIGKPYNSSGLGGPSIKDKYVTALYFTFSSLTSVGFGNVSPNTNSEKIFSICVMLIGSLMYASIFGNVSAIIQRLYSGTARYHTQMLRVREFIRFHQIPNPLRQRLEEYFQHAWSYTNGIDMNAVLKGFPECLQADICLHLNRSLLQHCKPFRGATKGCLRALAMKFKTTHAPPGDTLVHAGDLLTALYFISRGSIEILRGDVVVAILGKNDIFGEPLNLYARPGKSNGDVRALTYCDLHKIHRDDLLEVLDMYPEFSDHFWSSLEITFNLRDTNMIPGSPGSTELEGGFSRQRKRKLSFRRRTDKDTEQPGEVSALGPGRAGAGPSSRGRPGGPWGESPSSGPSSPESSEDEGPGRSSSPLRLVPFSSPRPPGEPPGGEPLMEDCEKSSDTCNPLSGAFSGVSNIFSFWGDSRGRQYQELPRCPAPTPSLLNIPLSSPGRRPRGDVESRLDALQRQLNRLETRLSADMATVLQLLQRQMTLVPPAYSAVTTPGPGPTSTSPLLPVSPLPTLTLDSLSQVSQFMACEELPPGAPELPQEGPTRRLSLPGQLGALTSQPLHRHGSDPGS
From the text: The rapid activation of delayed rectifier outward potassium current (IKr) in humans is mainly mediated by hERG ion channel and participates in human myocardial cell repolarization. Drug blockade of this current will lead to the appearance of QT interval prolongation syndrome in clinical practice, which can easily induce acute arrhythmia and even sudden death.

Row | IC50 [2] | IC50 (IRAK4 kinase) | SMILES | half-life (in vivo [1]; in vivo) | AUC(0-t) (in vivo [1]; plasma) | Cmax (in vivo [1]; plasma) | Tmax (in vivo [1]; plasma) | other results
1 | 0.9 nM | 0.7 nM | COc1cc2nn(CCS(=N)(=O)c3ccncc3)cc2cc1NC(=O)c1coc(-c2ccnc(C)c2)n1 (stereo not drawn) [Compound I-15] | 6 h | 8230 ng·h/mL | 1380 ng/mL | 5.9 h | 
2 |  |  | CC(C)(O)CCn1cc2cc(NC(=O)c3cccc(C(F)(F)F)n3)c(C(C)(C)O)cc2n1 [BAY-1830839, reference compound] |  |  |  |  | Cmax (in vivo [1]; in vivo): 223 ng/mL
3 | 0.6 nM | 0.2 nM | CC(C)(O)c1cc2nn(CCS(=N)(=O)c3ccncc3)cc2cc1NC(=O)c1cccc(C(F)(F)F)n1 (stereo not drawn) [Compound I-6] |  |  |  |  | 
4 | 0.6 nM | 0.3 nM | N=S(=O)(CCn1cc2cc(NC(=O)c3cccc(C(F)(F)F)n3)c(N3CCC(O)C3)cc2n1)c1ccnc2ccccc12 (stereo not drawn) [Compound I-12] |  |  |  |  | 
5 | 1.4 nM | 0.4 nM | Cc1cc(-c2nc(C(=O)Nc3cc4cn(CCS(=N)(=O)c5ccncc5)nc4cc3N3CCC(O)C3)co2)ccn1 (stereo not drawn) [Compound I-18] |  |  |  |  | 
6 | 1.5 nM | 0.5 nM | COc1cc2nn(CCS(=N)(=O)c3ncco3)cc2cc1NC(=O)c1cccc(C(F)(F)F)n1 (stereo not drawn) [Compound I-36] | 5.4 h | 8490 ng·h/mL | 1490 ng/mL | 5.6 h | 
7 | 1.3 nM | 0.3 nM | N=S(=O)(CCn1cc2cc(NC(=O)c3cccc(C(F)(F)F)n3)c(N3CCC(O)C3)cc2n1)c1ccccc1 (stereo not drawn) [Compound I-4] | 4.7 h | 8530 ng·h/mL | 1500 ng/mL | 6 h | 
8 | 0.7 nM | 0.7 nM | COc1cc2nn(CCS(=N)(=O)c3nccs3)cc2cc1NC(=O)c1cccc(C(F)(F)F)n1 (stereo not drawn) [Compound I-35] |  |  |  |  | 
9 | 1.3 nM | 0.7 nM | COc1cc2nn(CCS(=N)(=O)c3ccc(F)cc3)cc2cc1NC(=O)c1cccc(C(F)(F)F)n1 (stereo not drawn) [Compound I-27] |  |  |  |  | 
10 | 1.2 nM | 0.5 nM | CN=S(=O)(CCn1cc2cc(NC(=O)c3cccc(C(F)(F)F)n3)c(OC)cc2n1)c1ccccc1 (stereo not drawn) [Compound I-25] |  |  |  |  | 
11 | 125 nM |  | COc1cc2nn(CCS(C)(=N)=O)cc2cc1NC(=O)c1cccc(C(F)(F)F)n1 (stereo not drawn) [MY-004-103, reference compound] | 1.4 h | 734 ng·h/mL | 245 ng/mL | 1.4 h | 
12 | 0.8 nM | 0.5 nM | N=S(=O)(CCn1cc2cc(NC(=O)c3cccc(C(F)(F)F)n3)c(N3CCOCC3)cc2n1)c1ccnc2ccccc12 (stereo not drawn) [Compound I-11] |  |  |  |  | 
13 | 0.6 nM | 0.6 nM | N=S(=O)(CCn1cc2cc(NC(=O)c3cccc(C(F)(F)F)n3)c(N3CCOCC3)cc2n1)c1ccccc1 (stereo not drawn) [Compound I-3] |  |  |  |  | 
14 | 1.4 nM | 0.4 nM | N=S(=O)(CCn1cc2cc(NC(=O)c3cnn4cccnc34)c(N3CCOCC3)cc2n1)c1ncccn1 (stereo not drawn) [Compound I-33] |  |  |  |  | 
15 | 1.2 nM | 0.5 nM | Cc1cc(-c2nc(C(=O)Nc3cc4cn(CCS(=N)(=O)c5ccncc5)nc4cc3N3CCOCC3)co2)ccn1 (stereo not drawn) [Compound I-17] | 5.4 h | 8200 ng·h/mL | 1430 ng/mL | 5.8 h | 
16 | 1 nM | 0.5 nM | Cc1cc(-c2nc(C(=O)Nc3cc4cn(CCS(=N)(=O)c5ncccn5)nc4cc3C(C)(C)O)co2)ccn1 (stereo not drawn) [Compound I-32] |  |  |  |  | 
17 | 1.1 nM | 0.4 nM | Cc1cc2nn(CCS(=N)(=O)c3ccccc3)cc2cc1NC(=O)c1cccc(C(F)(F)F)n1 (stereo not drawn) [Compound I-13] |  |  |  |  | 
18 | 1.1 nM | 0.4 nM | N=S(=O)(CCn1cc2cc(NC(=O)c3cnn4cccnc34)c(N3CCOCC3)cc2n1)c1ccnc2ccccc12 (stereo not drawn) [Compound I-23] |  |  |  |  | 
19 | 0.9 nM | 0.6 nM | N=S(=O)(CCn1cc2cc(NC(=O)c3cccc(C(F)(F)F)n3)c(N3CCC(O)C3)cc2n1)c1ccncc1 (stereo not drawn) [Compound I-8] |  |  |  |  | 
20 | 0.9 nM | 0.8 nM | COc1cc2nn(CCS(=N)(=O)c3ccccn3)cc2cc1NC(=O)c1cccc(C(F)(F)F)n1 (stereo not drawn) [Compound I-19] |  |  |  |  | 
21 |  |  | CC(C)(O)c1cc2nn(CCS(C)(=O)=O)cc2cc1NC(=O)c1cccc(C(F)(F)F)n1 [BAY-1834845, reference compound] |  |  |  |  | Cmax (in vivo [1]; in vivo): 201 ng/mL
22 | 0.7 nM | 0.7 nM | COc1cc2nn(CCS(=N)(=O)c3ccccc3)cc2cc1NC(=O)c1coc(-c2ccnc(C)c2)n1 (stereo not drawn) [Compound I-28] |  |  |  |  | 
23 | 1.1 nM | 0.6 nM | Cc1cc(-c2nc(C(=O)Nc3cc4cn(CCS(=N)(=O)c5ccccn5)nc4cc3N3CCC(O)C3)co2)ccn1 (stereo not drawn) [Compound I-20] | 4.5 h | 7500 ng·h/mL | 1400 ng/mL | 4.9 h | 
24 | 0.9 nM | 0.6 nM | Cc1cc(-c2nc(C(=O)Nc3cc4cn(CCS(=N)(=O)c5ccccc5)nc4cc3N3CCOCC3)co2)ccn1 (stereo not drawn) [Compound I-30] |  |  |  |  | 
25 | 0.8 nM | 0.3 nM | CC(C)(O)c1cc2nn(CCS(=N)(=O)c3ccccc3)cc2cc1NC(=O)c1cnn2cccnc12 (stereo not drawn) [Compound I-22] |  |  |  |  | 
26 | 1 nM | 0.2 nM | COc1cc2nn(CCS(=N)(=O)c3ccnc4ccccc34)cc2cc1NC(=O)c1cccc(C(F)(F)F)n1 (stereo not drawn) [Compound I-9] | 4.8 h | 8520 ng·h/mL | 1420 ng/mL | 5.5 h | 

Row | SMILES | IC50 [2] | IC50 (IRAK4 kinase) | half-life (in vivo [1]; in vivo) | AUC(0-t) (in vivo [1]; plasma) | Cmax (in vivo [1]; plasma) | Tmax (in vivo [1]; plasma) | other results
27 | Cc1cc(-c2nc(C(=O)Nc3cc4cn(CCS(=N)(=O)c5ccnc6ccccc56)nc4cc3C(C)(C)O)co2)ccn1 (stereo not drawn) [Compound I-29] | 0.9 nM | 0.6 nM | 5.8 h | 8130 ng·h/mL | 1370 ng/mL | 5.9 h | MTD at 6 days (in vivo [3]): > 2000 mg/kg; Inhibition rate (%) of hERG current (hERG potassium channel; 5 μM): -3.9%; Inhibition rate (%) of hERG current (hERG potassium channel; 50 μM): 1.2%; Inhibition rate (%) of hERG current (hERG potassium channel; 500 μM): 13.9%
28 | CC(C)(O)c1cc2nn(CCS(=N)(=O)c3ccccc3)cc2cc1NC(=O)c1cccc(C(F)(F)F)n1 (stereo not drawn) [Compound I-2] | 0.3 nM | 0.5 nM | 5.5 h | 8100 ng·h/mL | 1580 ng/mL | 6.5 h | MTD at 6 days (in vivo [3]): > 2000 mg/kg; Inhibition rate (%) of hERG current (hERG potassium channel; 5 μM): -0.5%; Inhibition rate (%) of hERG current (hERG potassium channel; 50 μM): 0.7%; Inhibition rate (%) of hERG current (hERG potassium channel; 500 μM): 12.3%
29 | COc1cc2nn(CCS(=N)(=O)c3ncccn3)cc2cc1NC(=O)c1cccc(C(F)(F)F)n1 (stereo not drawn) [Compound I-31] | 1.3 nM | 0.6 nM | 4.5 h | 7980 ng·h/mL | 1300 ng/mL | 4.8 h | MTD at 6 days (in vivo [3]): > 2000 mg/kg; Inhibition rate (%) of hERG current (hERG potassium channel; 5 μM): 1.7%; Inhibition rate (%) of hERG current (hERG potassium channel; 50 μM): -0.2%; Inhibition rate (%) of hERG current (hERG potassium channel; 500 μM): 6.7%
30 | N=S(=O)(CCn1cc2cc(NC(=O)c3cnn4cccnc34)c(N3CCC(O)C3)cc2n1)c1ccccn1 (stereo not drawn) [Compound I-24] | 0.8 nM | 0.8 nM | 5.5 h | 8900 ng·h/mL | 1420 ng/mL | 6.2 h | MTD at 6 days (in vivo [3]): > 2000 mg/kg
31 | Cc1cc(-c2nc(C(=O)Nc3cc4cn(CCS(=N)(=O)c5ccncc5)nc4cc3C(C)(C)O)co2)ccn1 (stereo not drawn) [Compound I-16] | 0.9 nM | 0.5 nM | 6.3 h | 9230 ng·h/mL | 1360 ng/mL | 6 h | MTD at 6 days (in vivo [3]): > 2000 mg/kg
32 | N=S(=O)(CCn1cc2cc(NC(=O)c3cccc(C(F)(F)F)n3)c(N3CCOCC3)cc2n1)c1ccncc1 (stereo not drawn) [Compound I-7] | 1.2 nM | 0.5 nM | 5 h | 8630 ng·h/mL | 1500 ng/mL | 5 h | MTD at 6 days (in vivo [3]): > 2000 mg/kg
33 | CC(C)(O)c1cc2nn(CCS(C)(=N)=O)cc2cc1NC(=O)c1cccc(C(F)(F)F)n1 (stereo not drawn) [MY-004-102, reference compound] | 169 nM |  | 1.4 h | 700 ng·h/mL | 235 ng/mL | 1.3 h | MTD at 6 days (in vivo [3]): 750 mg/kg; IC50 (hERG potassium channel): ~50000 nM
